Test results from ChEMBL document CHEMBL4507311, “Data for DCP probe A-1155463” (2021).

Assays:
Settings in all cases: Compound concentration 1000.0 nM
[1] = test system: Serine/threonine-protein kinase B-raf (Homo sapiens), P15056 [V600E]
[2] = biological target: Wee1-like protein kinase 2 (Homo sapiens) (UniProt P0C1S8)
[3] = test system: Epidermal growth factor receptor (Homo sapiens), P00533 [L858R,T790M]

Measured: residual activity

Chain of Serine/threonine-protein kinase B-raf (Homo sapiens), P15056 [V600E] (P15056 whole entry V600E): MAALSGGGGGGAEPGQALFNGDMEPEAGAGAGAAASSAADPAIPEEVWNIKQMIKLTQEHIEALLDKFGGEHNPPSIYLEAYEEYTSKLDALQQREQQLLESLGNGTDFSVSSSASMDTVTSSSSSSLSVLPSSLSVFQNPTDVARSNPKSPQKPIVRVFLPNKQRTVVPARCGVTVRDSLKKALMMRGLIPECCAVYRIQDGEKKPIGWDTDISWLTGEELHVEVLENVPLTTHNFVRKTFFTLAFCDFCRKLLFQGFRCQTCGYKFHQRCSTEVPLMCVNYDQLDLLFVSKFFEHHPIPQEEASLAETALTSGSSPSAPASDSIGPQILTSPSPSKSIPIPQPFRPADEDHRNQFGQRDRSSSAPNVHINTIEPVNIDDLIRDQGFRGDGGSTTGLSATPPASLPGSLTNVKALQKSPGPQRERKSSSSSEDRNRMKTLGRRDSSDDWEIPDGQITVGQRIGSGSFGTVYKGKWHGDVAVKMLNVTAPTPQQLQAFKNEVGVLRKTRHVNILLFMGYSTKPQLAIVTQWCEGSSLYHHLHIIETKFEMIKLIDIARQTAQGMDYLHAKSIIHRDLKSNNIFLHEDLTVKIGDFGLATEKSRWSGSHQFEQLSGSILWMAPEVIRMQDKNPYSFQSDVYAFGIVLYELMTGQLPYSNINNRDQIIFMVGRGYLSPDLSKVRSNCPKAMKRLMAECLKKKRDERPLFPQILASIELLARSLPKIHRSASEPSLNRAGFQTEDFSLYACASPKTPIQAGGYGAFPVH
Chain of Wee1-like protein kinase 2 (Homo sapiens) (P0C1S8 whole entry, looked up): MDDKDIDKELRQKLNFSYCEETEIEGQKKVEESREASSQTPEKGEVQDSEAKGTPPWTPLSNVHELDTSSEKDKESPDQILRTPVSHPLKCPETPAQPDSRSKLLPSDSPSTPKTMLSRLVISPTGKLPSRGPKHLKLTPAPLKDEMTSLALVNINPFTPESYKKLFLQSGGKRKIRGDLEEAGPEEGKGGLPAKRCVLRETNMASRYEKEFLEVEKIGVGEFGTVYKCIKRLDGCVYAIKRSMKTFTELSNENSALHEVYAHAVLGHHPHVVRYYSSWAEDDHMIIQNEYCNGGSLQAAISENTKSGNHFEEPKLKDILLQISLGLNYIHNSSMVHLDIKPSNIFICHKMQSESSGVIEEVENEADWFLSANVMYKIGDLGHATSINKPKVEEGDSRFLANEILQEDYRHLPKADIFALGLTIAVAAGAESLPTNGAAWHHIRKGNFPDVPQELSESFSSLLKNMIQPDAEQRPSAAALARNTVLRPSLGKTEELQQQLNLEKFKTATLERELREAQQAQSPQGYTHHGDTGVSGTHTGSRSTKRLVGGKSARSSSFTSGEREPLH

CN(C)CC#Cc1ccc(OCCCc2sc(N3CCc4cccc(C(=O)Nc5nc6ccccc6s5)c4C3)nc2C(=O)O)c(F)c1 [A-1155463]
inactive: [1] 79% | [2] 100% | [3] 100%
